Data from article PMC11289455 (Scientific Reports, 2024).
Like-named read-outs stand apart in the source and are kept apart here.

How the values were obtained:
[1] = molecular target: T1, Dopamine transporter (Homo sapiens, UniProt Q01959); test: SafetyScreen44: dopamine transporter; format: binding
T1 construct: purchased Eurofins Cerep SafetyScreen44

[2] = molecular target: T2, D1 (dopamine D1 receptor) (Homo sapiens, UniProt P21728); test: SafetyScreen44: D1; format: binding
T2 construct: purchased Eurofins Cerep SafetyScreen44
T2 sequence (P21728 whole entry): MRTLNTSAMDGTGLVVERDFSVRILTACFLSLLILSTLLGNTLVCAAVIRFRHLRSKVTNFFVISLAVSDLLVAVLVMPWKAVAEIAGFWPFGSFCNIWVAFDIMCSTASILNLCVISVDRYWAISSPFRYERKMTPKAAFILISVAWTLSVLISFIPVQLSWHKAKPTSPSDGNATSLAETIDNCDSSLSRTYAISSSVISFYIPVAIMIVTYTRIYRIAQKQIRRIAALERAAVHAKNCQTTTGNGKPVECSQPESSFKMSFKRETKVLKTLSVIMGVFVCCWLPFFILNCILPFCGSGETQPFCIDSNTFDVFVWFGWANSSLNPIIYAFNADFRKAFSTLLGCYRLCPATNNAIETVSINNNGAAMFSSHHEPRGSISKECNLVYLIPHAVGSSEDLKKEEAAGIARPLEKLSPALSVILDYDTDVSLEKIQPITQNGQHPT

[3] = molecular target: T3, 5-HT1B (serotonin 1B receptor) (Rattus norvegicus, UniProt P28564); test: SafetyScreen44: 5-HT1B; format: binding
T3 construct: purchased Eurofins Cerep SafetyScreen44
T3 sequence (P28564 whole entry): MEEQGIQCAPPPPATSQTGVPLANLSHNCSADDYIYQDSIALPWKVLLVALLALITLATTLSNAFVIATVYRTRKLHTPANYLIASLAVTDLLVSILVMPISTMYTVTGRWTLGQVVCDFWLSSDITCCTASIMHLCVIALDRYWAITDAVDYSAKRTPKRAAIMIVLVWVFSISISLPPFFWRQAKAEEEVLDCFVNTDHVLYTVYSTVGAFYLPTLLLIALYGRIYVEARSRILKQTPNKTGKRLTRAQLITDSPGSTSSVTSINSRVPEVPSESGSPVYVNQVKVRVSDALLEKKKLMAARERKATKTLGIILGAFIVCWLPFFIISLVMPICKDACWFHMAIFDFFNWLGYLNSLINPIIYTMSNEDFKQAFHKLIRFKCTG

[4] = Plasma concentration in rat pharmacokinetic-pharmacodynamic model; format: in vivo
[5] = Rat pharmacokinetic and tissue distribution study, oral dosing
Method: Table S2. […] Plasma, small intestine, colon, and colon contents were sampled at terminal time points. Tissues and content were homogenized in buffer (1:1 PBS:ethanol with EDTA-free protease inhibitor tablets [Roche]). All samples were analyzed using LC-MS/MS.

[6] = molecular target: T4, A2A (adenosine 2A receptor) (Homo sapiens, UniProt P29274); test: SafetyScreen44: A2A; format: binding
T4 construct: purchased Eurofins Cerep SafetyScreen44
T4 sequence (P29274 whole entry): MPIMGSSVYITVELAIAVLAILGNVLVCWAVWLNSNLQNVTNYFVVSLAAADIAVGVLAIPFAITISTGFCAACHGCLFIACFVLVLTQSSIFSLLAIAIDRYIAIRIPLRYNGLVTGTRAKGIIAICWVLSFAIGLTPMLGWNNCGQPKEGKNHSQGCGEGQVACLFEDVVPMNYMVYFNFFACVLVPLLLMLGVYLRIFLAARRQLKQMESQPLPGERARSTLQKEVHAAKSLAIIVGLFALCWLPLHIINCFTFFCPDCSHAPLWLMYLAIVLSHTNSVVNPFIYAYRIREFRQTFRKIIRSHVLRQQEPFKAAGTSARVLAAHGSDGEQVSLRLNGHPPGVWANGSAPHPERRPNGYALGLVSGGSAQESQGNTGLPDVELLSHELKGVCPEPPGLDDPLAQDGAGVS

[7] = molecular target: T5, Lck kinase (lymphocyte-specific protein tyrosine kinase) (Homo sapiens, UniProt P06239); test: SafetyScreen44: Lck kinase; format: biochemical
T5 construct: purchased Eurofins Cerep SafetyScreen44
T5 sequence (P06239 whole entry): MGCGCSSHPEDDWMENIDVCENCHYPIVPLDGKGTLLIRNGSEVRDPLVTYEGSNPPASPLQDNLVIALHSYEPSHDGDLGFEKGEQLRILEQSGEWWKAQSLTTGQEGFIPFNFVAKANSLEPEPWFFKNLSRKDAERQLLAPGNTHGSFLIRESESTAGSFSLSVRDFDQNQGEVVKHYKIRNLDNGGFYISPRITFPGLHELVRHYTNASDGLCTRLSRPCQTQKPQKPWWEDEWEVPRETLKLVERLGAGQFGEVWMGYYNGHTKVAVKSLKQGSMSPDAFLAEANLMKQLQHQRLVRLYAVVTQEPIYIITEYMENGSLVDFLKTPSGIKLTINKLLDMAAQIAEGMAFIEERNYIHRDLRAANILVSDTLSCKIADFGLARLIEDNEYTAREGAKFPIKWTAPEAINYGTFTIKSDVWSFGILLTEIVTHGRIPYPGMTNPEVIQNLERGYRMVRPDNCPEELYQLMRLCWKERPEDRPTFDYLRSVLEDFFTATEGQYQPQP

[8] = molecular target: T6, D2S (short dopamine D2 receptor) (Homo sapiens, UniProt P14416); test: SafetyScreen44: D2S; format: binding
T6 construct: purchased Eurofins Cerep SafetyScreen44
T6 sequence (P14416 1-414 isoform P14416-2): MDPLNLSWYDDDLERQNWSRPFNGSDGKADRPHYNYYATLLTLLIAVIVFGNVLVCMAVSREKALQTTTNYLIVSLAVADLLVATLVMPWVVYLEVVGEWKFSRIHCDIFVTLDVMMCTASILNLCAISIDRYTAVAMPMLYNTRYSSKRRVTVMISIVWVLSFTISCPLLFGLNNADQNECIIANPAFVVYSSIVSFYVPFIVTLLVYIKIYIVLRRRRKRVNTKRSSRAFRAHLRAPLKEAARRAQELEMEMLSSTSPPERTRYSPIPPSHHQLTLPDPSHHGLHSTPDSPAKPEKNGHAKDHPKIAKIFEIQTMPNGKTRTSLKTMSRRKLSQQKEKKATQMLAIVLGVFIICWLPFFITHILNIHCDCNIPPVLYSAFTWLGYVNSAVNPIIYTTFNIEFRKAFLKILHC

[9] = molecular target: T7, H1 (histamine H1 receptor) (Homo sapiens, UniProt P35367); test: SafetyScreen44: H1; format: binding
T7 construct: purchased Eurofins Cerep SafetyScreen44
T7 sequence (P35367 whole entry): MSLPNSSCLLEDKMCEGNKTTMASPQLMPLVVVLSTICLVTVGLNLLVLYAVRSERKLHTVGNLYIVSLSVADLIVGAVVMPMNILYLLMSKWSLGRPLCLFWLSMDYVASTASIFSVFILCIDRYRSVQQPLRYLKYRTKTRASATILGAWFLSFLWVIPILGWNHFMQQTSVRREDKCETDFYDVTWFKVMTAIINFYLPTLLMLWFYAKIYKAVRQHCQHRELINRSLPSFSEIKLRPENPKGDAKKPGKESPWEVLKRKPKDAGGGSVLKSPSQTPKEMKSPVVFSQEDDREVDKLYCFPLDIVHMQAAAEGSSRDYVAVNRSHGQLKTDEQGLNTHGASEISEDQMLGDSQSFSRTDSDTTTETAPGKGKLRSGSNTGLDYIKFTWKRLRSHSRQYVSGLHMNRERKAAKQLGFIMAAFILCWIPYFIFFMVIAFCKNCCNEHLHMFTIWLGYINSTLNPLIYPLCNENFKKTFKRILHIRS

[10] = molecular target: T8, ETA (endothelin receptor subtype A) (Homo sapiens, UniProt P25101); test: SafetyScreen44: ETA; format: binding
T8 construct: purchased Eurofins Cerep SafetyScreen44
T8 sequence (P25101 21-427): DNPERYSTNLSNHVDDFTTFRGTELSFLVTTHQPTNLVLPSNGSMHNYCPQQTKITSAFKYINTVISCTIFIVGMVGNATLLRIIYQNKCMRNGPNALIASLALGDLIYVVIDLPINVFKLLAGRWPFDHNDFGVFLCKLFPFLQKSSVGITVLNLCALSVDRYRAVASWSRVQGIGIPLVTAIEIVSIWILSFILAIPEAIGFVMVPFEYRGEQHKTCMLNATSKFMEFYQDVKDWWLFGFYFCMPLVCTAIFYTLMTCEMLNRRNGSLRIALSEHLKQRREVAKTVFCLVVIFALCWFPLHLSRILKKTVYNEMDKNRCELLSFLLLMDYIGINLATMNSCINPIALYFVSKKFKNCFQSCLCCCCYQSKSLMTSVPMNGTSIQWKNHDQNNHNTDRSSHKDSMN

[11] = molecular target: T9, μ (MOP) (mu opioid receptor) (Homo sapiens, UniProt P35372); test: SafetyScreen44: μ (MOP); format: binding
T9 construct: purchased Eurofins Cerep SafetyScreen44
T9 sequence (P35372 whole entry): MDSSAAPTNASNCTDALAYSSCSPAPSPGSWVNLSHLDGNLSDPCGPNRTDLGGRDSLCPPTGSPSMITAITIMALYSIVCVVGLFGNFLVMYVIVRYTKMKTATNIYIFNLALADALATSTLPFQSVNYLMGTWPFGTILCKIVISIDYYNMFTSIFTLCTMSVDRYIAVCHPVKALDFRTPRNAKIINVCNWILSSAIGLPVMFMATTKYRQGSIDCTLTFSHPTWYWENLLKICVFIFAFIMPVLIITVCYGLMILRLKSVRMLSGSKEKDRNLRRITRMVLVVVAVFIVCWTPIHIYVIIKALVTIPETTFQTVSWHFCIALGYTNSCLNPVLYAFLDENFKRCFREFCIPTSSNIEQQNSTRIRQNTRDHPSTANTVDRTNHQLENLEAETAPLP

[12] = molecular target: T10, COX1 (Homo sapiens, UniProt P23219); test: SafetyScreen44: COX1; format: biochemical
T10 construct: purchased Eurofins Cerep SafetyScreen44
T10 sequence (P23219 24-599): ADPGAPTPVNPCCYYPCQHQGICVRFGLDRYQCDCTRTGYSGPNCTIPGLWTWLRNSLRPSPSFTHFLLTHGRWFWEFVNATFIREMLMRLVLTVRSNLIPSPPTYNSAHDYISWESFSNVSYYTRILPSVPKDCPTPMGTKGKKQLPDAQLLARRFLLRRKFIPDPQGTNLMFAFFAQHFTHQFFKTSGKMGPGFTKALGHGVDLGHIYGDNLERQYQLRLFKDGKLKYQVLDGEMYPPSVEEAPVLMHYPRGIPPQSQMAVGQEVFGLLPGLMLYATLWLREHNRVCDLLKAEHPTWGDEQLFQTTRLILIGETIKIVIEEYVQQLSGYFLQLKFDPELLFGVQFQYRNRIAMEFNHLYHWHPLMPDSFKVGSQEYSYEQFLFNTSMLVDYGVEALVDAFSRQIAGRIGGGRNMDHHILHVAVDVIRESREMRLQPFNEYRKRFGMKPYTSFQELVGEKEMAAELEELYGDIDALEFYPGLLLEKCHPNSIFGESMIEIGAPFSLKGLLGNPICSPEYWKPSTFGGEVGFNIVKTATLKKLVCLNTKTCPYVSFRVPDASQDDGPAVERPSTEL

[13] = male Sprague-Dawley rats, 10 mg/kg oral, n=4/timepoint, homogenate, LC-MS/MS
[14] = male Sprague-Dawley rats, 10 mg/kg oral, n=4/timepoint, tissue homogenate, LC-MS/MS
[15] = male, Sprague-Dawley, rat, in vivo, po, 10 mg/kg

T1 sequence (Q01959 whole entry): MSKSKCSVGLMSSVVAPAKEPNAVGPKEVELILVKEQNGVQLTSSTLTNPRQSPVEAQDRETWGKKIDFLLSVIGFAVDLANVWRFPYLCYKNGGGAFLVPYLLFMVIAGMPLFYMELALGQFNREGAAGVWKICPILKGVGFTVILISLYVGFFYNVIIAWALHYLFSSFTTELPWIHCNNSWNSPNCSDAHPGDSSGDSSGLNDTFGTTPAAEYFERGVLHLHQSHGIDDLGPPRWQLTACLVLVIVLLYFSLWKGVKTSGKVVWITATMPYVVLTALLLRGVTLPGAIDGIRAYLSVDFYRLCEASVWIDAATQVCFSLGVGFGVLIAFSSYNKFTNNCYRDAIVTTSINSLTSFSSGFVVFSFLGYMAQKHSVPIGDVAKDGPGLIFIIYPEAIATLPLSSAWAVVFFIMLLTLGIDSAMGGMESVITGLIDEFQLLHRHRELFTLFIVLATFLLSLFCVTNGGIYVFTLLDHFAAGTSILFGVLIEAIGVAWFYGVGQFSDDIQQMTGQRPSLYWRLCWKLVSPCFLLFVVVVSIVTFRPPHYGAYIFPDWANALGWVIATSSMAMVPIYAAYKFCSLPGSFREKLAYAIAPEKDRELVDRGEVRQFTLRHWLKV

CC(=O)NCCCC[C@@H]1NC(=O)[C@H](Cc2c[nH]c3c(C)cccc23)NC(=O)[C@H]([C@@H](C)O)NC(=O)[C@H](CC(N)=O)NC(=O)[C@@H](NC(C)=O)C(C)(C)SSC(C)(C)[C@@H](C(=O)N[C@@H](Cc2ccc(OCCN)cc2)C(=O)N[C@@H](Cc2ccc3ccccc3c2)C(=O)NC2(C(=O)N[C@@H](CCC(=O)O)C(=O)N[C@@H](CC(N)=O)C(=O)N[C@@H](Cc3cccnc3)C(=O)N(C)CC(N)=O)CCOCC2)NC1=O [JNJ-77242113, S^3,1,S^3,6-cyclo[N-acetyl-3-sulfanyl-L-valyl-L-asparaginyl-L-threonyl-7-methyl-L-tryptophyl-N^6-acetyl-L-lysyl-3-sulfanyl-L-valyl-O-(2-aminoethyl)-L-tyrosyl-3-(naphthalen-2-yl)-L-alanyl-4-aminooxan-4-carbonyl-L-α-glutamyl-L-asparaginyl-3-(pyridin-3-yl)-L-alanyl-N^2-methylglycinamide]]
inhibition at 10 µM ([1]; 1st run, read-out: Percent inhibition of control ligand binding, Dopamine transporter, 1st run): -3.6%
inhibition at 10 µM ([1]; 2nd run, read-out: Percent inhibition of control ligand binding, Dopamine transporter, 2nd run): -4.4%
inhibition at 10 µM ([1]; mean of 2 runs, read-out: Percent inhibition of control ligand binding, Dopamine transporter, Mean): -4%
inhibition at 10 µM ([2]; 1st run, read-out: Percent inhibition of control ligand binding, D1, 1st run): 2.2%
inhibition at 10 µM ([2]; 2nd run, read-out: Percent inhibition of control ligand binding, D1, 2nd run): 3.7%
inhibition at 10 µM ([2]; mean of 2 runs, read-out: Percent inhibition of control ligand binding, D1, Mean): 2.9%
inhibition at 10 µM ([3]; 1st run, read-out: Percent inhibition of control ligand binding, 5-HT1B, 1st run): 0%
inhibition at 10 µM ([3]; 2nd run, read-out: Percent inhibition of control ligand binding, 5-HT1B, 2nd run): -9.8%
inhibition at 10 µM ([3]; mean of 2 runs, read-out: Percent inhibition of control ligand binding, 5-HT1B, Mean): -4.9%
Mean dilution-adjusted exposure at 2 h (Tmax) ([4]; 10 mg/kg oral, plasma LC–MS/MS, dilution adjusted): 660 pM
Exposures (in words) ([4]; in vivo oral doses less than 10 mg/kg): below the limit of quantification
AUClast, colon content [5, 13]: 1,700,000 ng·hr/g
Cmax, colon content [5, 13]: 371,000 ng/g
Tmax, colon content [5, 13]: 6 h
AUClast, colon [5, 14]: 5,670 ng·hr/g
Cmax, colon [5, 14]: 1,380 ng/g
Tmax, colon [5, 14]: 6 h
AUC(0-t) [5, 15]: 23.1 ng·h/mL
Cmax [5, 15]: 6.49 ng/mL
Tmax [5, 15]: 3 h
Oral bioavailability ([5]; rat, oral dosing, data not shown): low oral bioavailability
inhibition at 10 µM ([6]; 1st run, read-out: Percent inhibition of control ligand binding, A2A, 1st run): -8.7%
inhibition at 10 µM ([6]; 2nd run, read-out: Percent inhibition of control ligand binding, A2A, 2nd run): -6.2%
inhibition at 10 µM ([6]; mean of 2 runs, read-out: Percent inhibition of control ligand binding, A2A, Mean): -7.5%
inhibition at 10 µM ([7]; 1st run, read-out: Percent inhibition of control ligand binding, Lck kinase, 1st run): 8.6%
inhibition at 10 µM ([7]; 2nd run, read-out: Percent inhibition of control ligand binding, Lck kinase, 2nd run): -2.3%
inhibition at 10 µM ([7]; mean of 2 runs, read-out: Percent inhibition of control ligand binding, Lck kinase, Mean): 3.1%
inhibition at 10 µM ([8]; 1st run, read-out: Percent inhibition of control ligand binding, D2S, 1st run): -6.6%
inhibition at 10 µM ([8]; 2nd run, read-out: Percent inhibition of control ligand binding, D2S, 2nd run): -6.6%
inhibition at 10 µM ([8]; mean of 2 runs, read-out: Percent inhibition of control ligand binding, D2S, Mean): -6.6%
inhibition at 10 µM ([9]; 1st run, read-out: Percent inhibition of control ligand binding, H1, 1st run): -8.4%
inhibition at 10 µM ([9]; 2nd run, read-out: Percent inhibition of control ligand binding, H1, 2nd run): -9.8%
inhibition at 10 µM ([9]; mean of 2 runs, read-out: Percent inhibition of control ligand binding, H1, Mean): -9.1%
inhibition at 10 µM ([10]; 1st run, read-out: Percent inhibition of control ligand binding, ETA, 1st run): -31.3%
inhibition at 10 µM ([10]; 2nd run, read-out: Percent inhibition of control ligand binding, ETA, 2nd run): -12.9%
inhibition at 10 µM ([10]; mean of 2 runs, read-out: Percent inhibition of control ligand binding, ETA, Mean): -22.1%
inhibition at 10 µM ([11]; 1st run, read-out: Percent inhibition of control ligand binding, μ (MOP), 1st run): 5.1%
inhibition at 10 µM ([11]; 2nd run, read-out: Percent inhibition of control ligand binding, μ (MOP), 2nd run): -4.8%
inhibition at 10 µM ([11]; mean of 2 runs, read-out: Percent inhibition of control ligand binding, μ (MOP), Mean): 0.1%
inhibition at 10 µM ([12]; 1st run, read-out: Percent inhibition of control ligand binding, COX1, 1st run): -18.8%
inhibition at 10 µM ([12]; 2nd run, read-out: Percent inhibition of control ligand binding, COX1, 2nd run): -37.6%
inhibition at 10 µM ([12]; mean of 2 runs, read-out: Percent inhibition of control ligand binding, COX1, Mean): -28.2%
